Data: patent publication US9695155B2, “Herbicidal substituted pyrimidinyloxy benzene compounds” (E. I. DU PONT DE NEMOURS AND COMPANY, priority 2013, dated 2017)

Legend:
oilseed rape = assay: Test C preemergence; format: in vivo, Brassica napus; details: for Oilseed Rape plant response rating: preemergence
Summary of the method: (§1)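 Visual ratings on a 0–100 scale (100 = complete control) were made versus untreated controls after 13–15 greenhouse days. Chemicals in a surfactant-containing non-phytotoxic solvent were applied either preemergence to seeds in loam–sand soil or postemergence to 1- to 4-leaf plants 2–18 cm tall.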

Heteranthera limosa = assay: Test B flooded paddy test; format: in vivo; details: Flood, 250 g ai/ha; 0 to 100 scale where 0 is no effect and 100 is complete control
Summary of the method: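 Compound added straight to paddy water, with pots kept flooded 3 cm above soil, on plants grown to the 2-leaf stage. Visual scoring 0-100 (100 = complete control) against untreated controls after 13 to 15 greenhouse days.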

morningglory = assay: Test C preemergence; format: in vivo, Ipomoea coccinea; details: for Morningglory plant response rating: preemergence
Summary of the method: as §1

chickweed = assay: Test C postemergence; format: in vivo, Stellaria media; details: for Plant response rating, Chickweed: Postemergence
Summary of the method: as §1

galium = assay: Test C preemergence; format: in vivo, Galium aparine; details: for Galium plant response rating: preemergence
Summary of the method: as §1

giant foxtail = assay: Test A preemergence; format: in vivo, Setaria faberii
Summary of the method: (§2)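 Scoring: eye-based comparison with untreated controls, 0 for no effect through 100 for complete control, at about day 10. Treatments: directed soil spray preemergence; foliar spray postemergence on 2–10 cm plants at the one- to two-leaf stage. Medium: loam soil with sand.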

wheat, winter = assay: Test C postemergence; format: in vivo, Triticum aestivum; details: for Plant response rating, Wheat: Postemergence, scale 0 to 100 (0 no effect, 100 complete control)
Summary of the method: as §1

johnsongrass = assay: Test C preemergence; format: in vivo, Sorghum halepense; details: for Johnsongrass plant response rating: preemergence
Summary of the method: as §1

corn = assay: Test C postemergence; format: in vivo, Zea mays; details: for Plant response rating, Corn: Postemergence
Summary of the method: as §1

large (Lg) crabgrass = assay: Test C postemergence; format: in vivo, Digitaria sanguinalis; details: for Plant response rating, Crabgrass, Large: Postemergence
Summary of the method: as §1

pigweed = assay: Test A postemergence; format: in vivo, Amaranthus retroflexus; details: 0 to 100 scale where 0 is no effect and 100 is complete control
Summary of the method: as §2

Italian ryegrass = assay: Test C preemergence; format: in vivo, Lolium multiflorum; details: for Ryegrass, Italian plant response rating: preemergence
Summary of the method: as §1

velvetleaf = assay: Test C preemergence; format: in vivo, Abutilon theophrasti; details: for Velvetleaf plant response rating: preemergence
Summary of the method: as §1

[1] = 16 g ai/ha, scale 0 to 100 (0 no effect, 100 complete control)
[2] = 62 g ai/ha, scale 0 (no effect) to 100 (complete control)
[3] = 125 g ai/ha, scale 0 (no effect) to 100 (complete control)
[4] = Preemergence, 31 g ai/ha, scale 0 to 100, 0 no effect, 100 complete control
[5] = 16 g ai/ha, postemergence, visual rating, scale 0 to 100 (0 no effect, 100 complete control), 13 to 15 days
[6] = 31 g ai/ha, scale 0 to 100 (0 no effect, 100 complete control), 13 to 15 days
[7] = 62 g ai/ha, scale 0 to 100 (0 no effect, 100 complete control)

Structure (SMILES): FCc1cccc(Oc2ncc(Cl)cn2)c1-n1cc(Br)cn1 [Compound 83]
- Oilseed Rape plant response rating (oilseed rape; [1]): 75
- Oilseed Rape plant response rating (oilseed rape; [2]): 98
- Oilseed Rape plant response rating (oilseed rape; [3]): 100
- Plant response rating, Oilseed Rape (oilseed rape; [4]): 95
- Plant response rating, Ducksalad (Heteranthera limosa): 45
- Morningglory plant response rating (morningglory; [1]): 0
- Morningglory plant response rating (morningglory; [2]): 0
- Morningglory plant response rating (morningglory; [3]): 10
- Plant response rating, Morningglory (morningglory; [4]): 0
- Chickweed plant response rating (chickweed; [5]): 35
- Plant response rating (0 to 100), Chickweed (chickweed; 125 g ai/ha, postemergence): 70
- Plant response rating, Chickweed (chickweed; [6]): 40
- Plant response rating, Chickweed (chickweed; [7]): 60
- Galium plant response rating (galium; [1]): 0
- Galium plant response rating (galium; [2]): 85
- Galium plant response rating (galium; [3]): 100
- Plant response rating, Galium (galium; [4]): 0
- Plant response rating, Foxtail, Giant (giant foxtail; 125 g ai/ha, 0 to 100 scale where 0 is no effect and 100 is complete control): 100
- Foxtail, Giant plant response rating (giant foxtail; 500 g ai/ha, 0 to 100 scale, 0 no effect, 100 complete control, approx. 10 days): 100
- Plant response rating (0 to 100), Wheat (wheat, winter; 125 g ai/ha, postemergence): 5
- Plant response rating, Wheat (wheat, winter; 31 g ai/ha, 13 to 15 days): 0
- Plant response rating, Wheat (wheat, winter; 62 g ai/ha): 0
- Johnsongrass plant response rating (johnsongrass; [1]): 0
- Johnsongrass plant response rating (johnsongrass; [2]): 50
- Johnsongrass plant response rating (johnsongrass; [3]): 85
- Plant response rating, Johnsongrass (johnsongrass; [4]): 0
- Corn plant response rating (corn; [5]): 0
- Plant response rating (0 to 100), Corn (corn; 125 g ai/ha, postemergence): 10
- Plant response rating, Corn (corn; [6]): 5
- Plant response rating, Corn (corn; [7]): 5
- Crabgrass, Large plant response rating (large (Lg) crabgrass; [5]): 5
- Plant response rating (0 to 100), Crabgrass, Large (large (Lg) crabgrass; 125 g ai/ha, postemergence): 10
- Plant response rating, Crabgrass, Large (large (Lg) crabgrass; [6]): 5
- Plant response rating, Crabgrass, Large (large (Lg) crabgrass; [7]): 10
- Plant response rating, Pigweed (pigweed; 125 g ai/ha): 100
- Plant response rating, Pigweed (pigweed; 500 g ai/ha): 100
- Ryegrass, Italian plant response rating (Italian ryegrass; [1]): 0
- Ryegrass, Italian plant response rating (Italian ryegrass; [2]): 30
- Ryegrass, Italian plant response rating (Italian ryegrass; [3]): 50
- Plant response rating, Ryegrass, Italian (Italian ryegrass; [4]): 0
- Velvetleaf plant response rating (velvetleaf; [1]): 60
- Velvetleaf plant response rating (velvetleaf; [2]): 100
- Velvetleaf plant response rating (velvetleaf; [3]): 100
- Plant response rating, Velvetleaf (velvetleaf; [4]): 100
